The values below come from patent US7919133B2, “Substituted cyclopropanecarboxylic acid (3-methyl-cyclohexyl)amide as flavoring substance” (SYMRISE GmbH & Co. KG, priority 2007, dated 2011).

Molecules are shown by their SMILES.

The conditions of assay [1]: among substituted benzoic amides of WO 2006/099762; cited from earlier work.
The nature of assay [2]: Tasting in the applicant's own investigations. The format is in vivo. As to conditions: for Umami-properties: in vivo.
A short description of assay [3]: Panel tasting in 0.5% American beef extract / beef broth as base (FIG. 1, scores 0 to 6). In kind it is in vivo. From the text: In spider diagram attached as FIG. 1, American beef broth is exemplarily compared as a base, with firstly such a base with an addition of 5 ppm of mixture of cyclopropanecarboxylic acid-((1S,2S,5R)-2-isopropyl-5-methyl-cyclohexyl)-amide (11) and Cyclopropanecarboxylic acid-((1R,2R,5S)-2-isopropyl-5-methyl-cyclohexyl)-amide (12) (mixing ratio of 1:1) and secondly with such a base with an addition of 0.05 wt.-% of MSG.
With the aid of tasting by a panel of trained subjects, the taste of a 0.5% American beef extract as base (light grey line) was compared with the taste of firstly, such a base, to which 5 ppm of mixture consisting of cyclopropanecarboxylic acid-((1S,2S,5R)-2-isopropyl-5-methyl-cyclohexyl)amide (11) and cyclopropanecarboxylic acid-((1R,2R,5S)-2-isopropyl-5-methyl-cyclohexyl)amide (12) was added (solid line), and secondly such a base, to which 0.05 wt.-% of MSG was added (broken line).
The subjects rated the strength of the stated trend of taste by ranking of scores on a scale from 0 (no corresponding taste) to 6 (very strong corresponding taste). The average values of respective scores are illustrated.

The conditions of assay [4]: as given in US 2004/0202760 and US 2004/0202619; cited from earlier work.

Turning to `COC(=O)c1ccc(C(=O)NC2CC(C)CCC2C(C)C)cc1` (centres unmarked), the cooling effect entry in assay [1] is reported as “strongest ascertained cooling effect”.

Take `CC(C)[C@@H]1CC[C@@H](C)C[C@@H]1NC(=O)C1CC1` [(11), Cyclopropanecarboxylic acid-((1S,2S,5R)-2-isopropyl-5-methyl-cyclohexyl)amide]: the Umami-properties result in assay [2] was “interesting and strong Umami-properties”. With `CC(C)[C@H]1CC[C@H](C)C[C@H]1NC(=O)C1CC1` [(12), Cyclopropanecarboxylic acid-((1R,2R,5S)-2-isopropyl-5-methyl-cyclohexyl)amide], the Umami-properties result in assay [2] was “interesting and strong Umami-properties”. Take `O=C(NC1CCCCC1)C1CC1` [Cyclopropanecarboxylic acid cyclohexyl amide]: the “creating or enhancing of an Umami taste impression” value in assay [3] was “no creating or enhancing of an Umami taste impression could be verified”. Moreover, the taste rating result in assay [2] (tasting in own investigations) is reported as “taste-neutral”. `CC/C=C\CC/C=C/C(=O)NC1CC1` [N-cyclopropyl-E2,Z6-nonadiene amide]: in assay [4], the sensory impression entry is “effect similar to MSG”.

Take `CCCCC/C=C\CC/C=C/C(=O)NCC` [N-ethyl-E2,Z6-dodecadiene amide]: the sensory impression result in assay [4] was “effect similar to MSG”. On to `CC/C=C\CC/C=C/C(=O)NCC` [N-ethyl-E2,Z6-nonadiene amide], for which the sensory impression entry in assay [4] is listed as “effect similar to MSG”.
